Source: ChEMBL document CHEMBL1770049, “Synthesis of novel mast cell-stabilising and anti-allergic 1,2,3,4-tetrahydro-1-naphthalenols and related compounds” (Eur J Med Chem, 2011)
Calls of active or inactive are those of the source. The calls are words filed in the database; no cut-off is given here.

Columns and labels:
[1] = Lipophilicity, log P of the compound; format: physicochemical; settings: octanol/water
[2] = Antiallergic activity in rat Peritoneal mast cell assessed as inhibition of compound 48/80-induced histamine release; format: functional, cell-based
Mus musculus = experiment: Antiinflammatory activity in Laca mouse assessed as inhibition of arachidonic acid induced ear oedema at 300 ug/ear; format: functional, organism-based
Rattus norvegicus = experiment: Antiallergic activity in sensitized rat assessed as inhibition of ovalbumin-induced passive cutaneous anaphylaxis at 3 mg/kg, iv after 30 mins relative to control; format: functional; settings: 0.5 h
[3] = Antiallergic activity in rat Peritoneal mast cell assessed as inhibition of compound 48/80-induced histamine release at 20 uM; format: functional
[4] = Antiallergic activity in rat Peritoneal mast cell assessed as inhibition of Con A-induced histamine release; format: functional, cell-based
[5] = Antiallergic activity in rat Peritoneal mast cell assessed as inhibition of ionophore A23187-induced histamine release; format: functional, cell-based

SMILES | logP [1] | IC50 [2] | IC50 [4] | IC50 [5] | Activity (Mus musculus) | inhibition in vivo at 3 mg/kg (Rattus norvegicus) | inhibition at 20 µM [3]
OC1c2ccccc2CCC1(/C=C/c1ccccc1)Cc1ccccc1 (stereo not given) | 6.58 | 55.3 µM | – | – | inactive | 44% | –
CC(Cc1ccccc1)(C1=Cc2ccccc2C1)C(O)c1ccccc1 (stereo not given) | – | – | – | – | inactive | – | 82%
Cc1ccc(CC2(/C=C/c3ccccc3)CCc3ccccc3C2O)cc1 (stereo not given) | – | 9.4 µM | – | – | – | – | –
O=C(O)c1cc(=O)c2c(OCC(O)COc3cccc4oc(C(=O)O)cc(=O)c34)cccc2o1 [CROMOLYN SODIUM] | – | – | – | – | – | 87% | 10%
CC(/C=C/c1ccccc1)(Cc1ccccc1)C(O)c1ccccc1 (stereo not given) | – | 70.9 µM | – | – | – | – | –

Further compounds by falling IC50 [2], results first:

logP [1] | IC50 [2] | IC50 [4] | IC50 [5] | SMILES | Activity (Mus musculus) | inhibition in vivo at 3 mg/kg (Rattus norvegicus) | inhibition at 20 µM [3]
– | 8 µM | – | – | O=C1c2ccccc2CCC1C1=Cc2ccccc2CC1 (stereo not given) | – | – | –
6.3 | 7.7 µM | 3.6 µM | 4.7 µM | OC1c2ccccc2CC1(Cc1ccccc1)C1=Cc2ccccc2CC1 (stereo not given) | inactive | 2% | –
6.3 | 4.1 µM | 0.75 µM | 10 µM | OC1c2ccccc2CCC1(Cc1ccccc1)C1=Cc2ccccc2C1 (stereo not given) | Active | -5% | –
– | 3.3 µM | – | – | CC(Cc1ccccc1)(C1=Cc2ccccc2CC1)C(O)c1ccccc1 (stereo not given) | inactive | – | –
